Measured values from article PMC3961306, “Comparison of the Cancer Gene Targeting and Biochemical Selectivities of All Targeted Kinase Inhibitors Approved for Clinical Use” (PLoS ONE, 2014).

Legend:
Test in all cases: Kinase profiling in a biochemical assay panel (mobility shift assays and ELISA), %-inhibition at 1 μM; selectivity entropy
[1] = biological target: panel of more than 300 wild-type and mutant kinases (313 kinase panel) (Homo sapiens, UniProt Q9UK32)
[2] = biological target: T1, panel of more than 300 wild-type and mutant kinases (313 kinase panel) (Homo sapiens, UniProt P29320)
T1 sequence (P29320 21-983): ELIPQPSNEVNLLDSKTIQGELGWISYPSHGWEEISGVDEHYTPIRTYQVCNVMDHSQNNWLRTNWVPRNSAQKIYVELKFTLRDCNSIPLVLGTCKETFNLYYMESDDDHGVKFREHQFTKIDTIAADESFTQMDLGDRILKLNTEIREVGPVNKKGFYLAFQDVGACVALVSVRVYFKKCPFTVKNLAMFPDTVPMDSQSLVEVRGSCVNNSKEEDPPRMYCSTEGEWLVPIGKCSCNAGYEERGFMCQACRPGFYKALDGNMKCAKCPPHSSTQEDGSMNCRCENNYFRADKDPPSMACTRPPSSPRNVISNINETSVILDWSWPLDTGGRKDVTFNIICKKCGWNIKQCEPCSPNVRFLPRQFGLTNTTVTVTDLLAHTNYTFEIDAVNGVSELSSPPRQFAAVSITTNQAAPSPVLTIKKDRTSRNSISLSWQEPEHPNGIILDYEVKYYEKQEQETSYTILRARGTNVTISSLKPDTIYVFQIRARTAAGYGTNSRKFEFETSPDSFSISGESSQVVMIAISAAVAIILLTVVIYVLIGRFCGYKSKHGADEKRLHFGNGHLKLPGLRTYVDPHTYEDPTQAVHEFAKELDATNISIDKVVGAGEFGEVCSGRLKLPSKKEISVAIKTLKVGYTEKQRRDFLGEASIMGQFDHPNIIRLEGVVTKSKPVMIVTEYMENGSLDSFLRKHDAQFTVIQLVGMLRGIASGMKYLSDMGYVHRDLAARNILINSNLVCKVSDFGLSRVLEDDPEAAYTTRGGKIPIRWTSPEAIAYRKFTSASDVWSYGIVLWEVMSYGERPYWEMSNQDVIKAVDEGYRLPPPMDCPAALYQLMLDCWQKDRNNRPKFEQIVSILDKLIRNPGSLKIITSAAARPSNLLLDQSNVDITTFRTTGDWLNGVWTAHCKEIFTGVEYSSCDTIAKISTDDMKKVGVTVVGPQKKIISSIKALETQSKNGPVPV

[3] = biological target: panel of more than 300 wild-type and mutant kinases (313 kinase panel) (Homo sapiens, UniProt P30291)
Chain of panel of more than 300 wild-type and mutant kinases (313 kinase panel) (Homo sapiens, UniProt P30291) (P30291 whole entry, change not shown): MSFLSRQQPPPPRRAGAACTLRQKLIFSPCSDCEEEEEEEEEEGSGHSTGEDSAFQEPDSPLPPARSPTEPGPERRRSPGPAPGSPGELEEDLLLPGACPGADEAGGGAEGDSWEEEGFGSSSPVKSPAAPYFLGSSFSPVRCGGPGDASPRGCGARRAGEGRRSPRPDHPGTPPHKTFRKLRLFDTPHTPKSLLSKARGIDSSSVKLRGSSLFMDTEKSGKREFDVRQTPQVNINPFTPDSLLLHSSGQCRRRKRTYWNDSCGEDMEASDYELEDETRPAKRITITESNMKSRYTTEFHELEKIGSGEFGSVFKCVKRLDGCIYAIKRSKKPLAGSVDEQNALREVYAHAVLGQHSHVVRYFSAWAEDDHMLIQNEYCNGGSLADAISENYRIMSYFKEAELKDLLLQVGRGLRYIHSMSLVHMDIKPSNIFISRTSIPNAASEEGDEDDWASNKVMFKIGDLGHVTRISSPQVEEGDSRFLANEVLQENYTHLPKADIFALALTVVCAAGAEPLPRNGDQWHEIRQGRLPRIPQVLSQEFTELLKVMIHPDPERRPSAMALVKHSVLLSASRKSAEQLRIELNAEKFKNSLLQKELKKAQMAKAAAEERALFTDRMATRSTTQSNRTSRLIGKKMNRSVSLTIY

[4] = biological target: panel of more than 300 wild-type and mutant kinases (313 kinase panel) (Homo sapiens, UniProt P68400)
[5] = biological target: panel of more than 300 wild-type and mutant kinases (313 kinase panel) (Homo sapiens, UniProt Q13177)
[6] = biological target: panel of more than 300 wild-type and mutant kinases (313 kinase panel) (Homo sapiens, UniProt Q13554)
Chain of panel of more than 300 wild-type and mutant kinases (313 kinase panel) (Homo sapiens, UniProt Q13554) (Q13554 whole entry, change not shown): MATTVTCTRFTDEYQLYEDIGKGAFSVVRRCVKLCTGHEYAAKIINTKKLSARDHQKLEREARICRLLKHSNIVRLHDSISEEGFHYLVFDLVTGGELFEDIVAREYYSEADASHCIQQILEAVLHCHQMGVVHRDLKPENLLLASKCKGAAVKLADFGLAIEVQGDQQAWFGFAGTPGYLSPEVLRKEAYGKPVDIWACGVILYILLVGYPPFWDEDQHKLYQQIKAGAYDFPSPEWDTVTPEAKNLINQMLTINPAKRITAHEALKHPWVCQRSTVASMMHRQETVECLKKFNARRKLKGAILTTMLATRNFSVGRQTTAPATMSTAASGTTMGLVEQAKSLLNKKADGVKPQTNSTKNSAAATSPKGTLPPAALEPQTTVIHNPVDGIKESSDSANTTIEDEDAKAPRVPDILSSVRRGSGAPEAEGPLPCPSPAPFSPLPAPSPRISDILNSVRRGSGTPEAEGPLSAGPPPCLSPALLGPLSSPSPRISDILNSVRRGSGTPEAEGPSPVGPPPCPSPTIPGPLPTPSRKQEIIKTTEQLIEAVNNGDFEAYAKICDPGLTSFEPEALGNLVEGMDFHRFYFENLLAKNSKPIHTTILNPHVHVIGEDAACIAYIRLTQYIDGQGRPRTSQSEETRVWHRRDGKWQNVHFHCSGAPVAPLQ

[7] = biological target: T2, panel of more than 300 wild-type and mutant kinases (313 kinase panel) (Homo sapiens, UniProt P51813)
T2 sequence (P51813 1-675): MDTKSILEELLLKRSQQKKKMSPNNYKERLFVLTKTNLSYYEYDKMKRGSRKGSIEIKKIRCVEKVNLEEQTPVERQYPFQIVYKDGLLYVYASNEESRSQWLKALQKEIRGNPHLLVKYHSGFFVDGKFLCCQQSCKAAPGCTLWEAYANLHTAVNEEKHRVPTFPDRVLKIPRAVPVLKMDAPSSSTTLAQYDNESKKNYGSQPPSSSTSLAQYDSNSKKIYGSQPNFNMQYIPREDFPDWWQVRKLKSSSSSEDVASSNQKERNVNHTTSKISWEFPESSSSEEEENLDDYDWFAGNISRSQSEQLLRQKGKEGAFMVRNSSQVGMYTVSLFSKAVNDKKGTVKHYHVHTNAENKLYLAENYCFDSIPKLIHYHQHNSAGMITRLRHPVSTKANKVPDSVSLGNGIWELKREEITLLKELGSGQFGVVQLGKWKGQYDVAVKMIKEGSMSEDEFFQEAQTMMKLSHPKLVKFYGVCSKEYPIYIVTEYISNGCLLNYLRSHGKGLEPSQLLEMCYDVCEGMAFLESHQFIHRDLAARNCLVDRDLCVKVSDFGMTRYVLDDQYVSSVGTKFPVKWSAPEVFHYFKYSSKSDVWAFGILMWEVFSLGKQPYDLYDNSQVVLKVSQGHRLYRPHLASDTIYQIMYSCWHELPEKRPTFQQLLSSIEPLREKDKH

Chain of panel of more than 300 wild-type and mutant kinases (313 kinase panel) (Homo sapiens, UniProt Q9UK32) (Q9UK32 whole entry, change not shown): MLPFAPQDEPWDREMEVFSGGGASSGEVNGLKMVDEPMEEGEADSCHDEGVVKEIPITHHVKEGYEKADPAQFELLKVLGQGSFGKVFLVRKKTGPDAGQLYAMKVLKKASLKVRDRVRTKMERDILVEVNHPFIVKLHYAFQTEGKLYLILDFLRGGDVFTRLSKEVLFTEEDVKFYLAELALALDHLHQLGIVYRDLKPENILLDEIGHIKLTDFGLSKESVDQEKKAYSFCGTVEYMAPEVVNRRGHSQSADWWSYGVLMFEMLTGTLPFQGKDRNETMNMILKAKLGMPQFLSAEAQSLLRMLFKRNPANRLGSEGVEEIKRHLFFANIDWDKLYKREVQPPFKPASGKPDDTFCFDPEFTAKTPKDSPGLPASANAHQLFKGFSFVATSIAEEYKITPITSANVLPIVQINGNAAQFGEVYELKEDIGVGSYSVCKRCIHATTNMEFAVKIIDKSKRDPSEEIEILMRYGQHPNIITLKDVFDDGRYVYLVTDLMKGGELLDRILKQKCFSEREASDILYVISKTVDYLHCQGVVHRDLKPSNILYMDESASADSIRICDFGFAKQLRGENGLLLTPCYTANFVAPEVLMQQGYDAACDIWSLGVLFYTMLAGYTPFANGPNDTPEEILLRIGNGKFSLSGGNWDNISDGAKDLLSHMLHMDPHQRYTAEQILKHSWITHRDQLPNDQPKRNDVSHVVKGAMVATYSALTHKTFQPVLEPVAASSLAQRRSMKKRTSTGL

SMILES | %-inhibition of RSK4 ([1]; kinase RSK4, 1 μM) [%] | %-inhibition of EPHA3 ([2]; kinase EPHA3, compound at 1 μM) [%] | %-inhibition of WEE1 ([3]; kinase WEE1, compound at 1 μM) [%] | %-inhibition, CK2α1/β ([4]; kinase CK2α1/β, 1 μM compound) [%] | %-inhibition of PAK2 ([5]; kinase PAK2, 1 μM) [%] | %-inhibition, CaMK2β ([6]; kinase CaMK2β, 1 μM compound) [%] | %-inhibition, BMX ([7]; kinase BMX, 1 μM compound) [%] | %-inhibition, CK2α1/β ([4]; 1 µM) [%] | %-inhibition of PAK2 ([5]; 1 µM) [%] | %-inhibition of RSK4 ([1]; 1 µM) [%] | %-inhibition, CaMK2β ([6]; 1 µM) [%] | %-inhibition of EPHA3 ([2]; 1 µM) [%] | %-inhibition, BMX ([7]; 1 µM) [%] | %-inhibition of WEE1 ([3]; 1 µM) [%]
COc1cc(Nc2c(C#N)cnc3cc(OCCCN4CCN(C)CC4)c(OC)cc23)c(Cl)cc1Cl [bosutinib] | 43 | 67 | 98 |  |  |  |  |  |  |  |  |  |  | 
COc1cc2nccc(Oc3ccc(NC(=O)C4(C(=O)Nc5ccc(F)cc5)CC4)cc3)c2cc1OC [cabozantinib] | -3.65 | 97 | 5.45 | -2.76 | -5.44 | -4 | 53 |  |  |  |  |  |  | 
C[C@@H](Oc1cc(-c2cnn(C3CCNCC3)c2)cnc1N)c1c(Cl)ccc(F)c1Cl [crizotinib] | -1.58 | 19 | 12 |  | 5 |  |  | -6.39 |  |  |  |  |  | 
CC(C)(C)c1nc(-c2cccc(NS(=O)(=O)c3c(F)cccc3F)c2F)c(-c2ccnc(N)n2)s1 [dabrafenib] | 2.2 | 18 | 0.651 |  |  | -0.277 | 55 |  |  |  |  |  |  | 
Cc1nc(Nc2ncc(C(=O)Nc3c(C)cccc3Cl)s2)cc(N2CCN(CCO)CC2)n1 [dasatinib] |  |  |  | -1.7 | 0.254 | -6 |  |  |  |  |  |  |  | 
C#Cc1cccc(Nc2ncnc3cc(OCCOC)c(OCCOC)cc23)c1 [erlotinib] |  |  |  |  |  |  |  | 0 | 5 | 8 | -6 | 15 | 17 | 20
CO[C@H]1C[C@@H]2CC[C@@H](C)[C@@](O)(O2)C(=O)C(=O)N2CCCC[C@H]2C(=O)O[C@H]([C@H](C)C[C@@H]2CC[C@@H](OCCO)[C@H](OC)C2)CC(=O)[C@H](C)/C=C(\C)[C@@H](O)[C@@H](OC)C(=O)[C@H](C)C[C@H](C)/C=C/C=C/C=C/1C [everolimus] | -8 | -20 | 7 | -4.26 | -8 | -10 | -5.3 |  |  |  |  |  |  | 
O=S(=O)(c1cccc2cnccc12)N1CCCNCC1 [fasudil] | 16 | -7 | -0.258 | -4 | -16 | 2.58 | -4 |  |  |  |  |  |  | 
CS(=O)(=O)CCNCc1ccc(-c2ccc3ncnc(Nc4ccc(OCc5cccc(F)c5)c(Cl)c4)c3c2)o1 [lapatinib] |  |  | 8 | -1.7 | 7 |  | 9 |  |  | 2.39 | -5 | 0.372 |  | 
